≈ marks a conversion by molar mass, not a printed value.
Columns and labels:
[1] = Solubility of Crystalline Form A in test solvents (excess solid equilibrated, filtrate by HPLC); format: physicochemical; conditions: for pH of final solution: 25°C solubility test; for solubility at 8 days: 25°C, equilibrated 8 days; for solubility at 4 days: 37°C, equilibrated 4 days
Procedure: (§1) The solubility and dissolution rate of the Crystalline form A of the free base of compound I prepared as described in Example 1 were tested in various solvents.
(§2) For solubility measurements, excess Form A of the free base of compound I was added to the test solvents and equilibrated for 8 days at 25° C.±0.5° C. and 4 days at 37±0.5° C. Slurries were filtered and the filtrate saved for HPLC solubility determinations. Dissolution rate measurements were carried out in 0.5 cm^2 Vankel punch and die assemblies and a pellet pressure of 2000 pounds. The dissolution was measured using fiber optics dissolution system (C technologies Inc.) and a Cary UV/VIS spectrophotometer, with a stirring rate of 200 rpm. The solution medium was held at 37±0.5° C. and the concentration measurements were made at 260 nm.

[2] = Intrinsic dissolution rate (Vankel punch and die, fiber optics UV at 260 nm, 200 rpm, 37°C); format: physicochemical; conditions: for Intrinsic dissolution rate: 37°C, 200 rpm
Procedure: as §1, §2

- pH of final solution ([1]; 0.01N HCL): 2.24
- pH of final solution ([1]; 0.01N HCl + SDS (0.1%)): 2.33
- pH of final solution ([1]; 0.1N HCl + SDS (0.1%)): 1.48
- pH of final solution ([1]; 0.1N HCl): 1.49
- pH of final solution ([1]; Phosphate buffer, pH 6.8): 7.02
- pH of final solution ([1]; Water + SDS (0.1%)): 7.02
- pH of final solution ([1]; Water): 6.28
- solubility at 8 days ([1]; aqueous buffer, thermodynamic from solid, Phosphate buffer, pH 6.8): 0.47 µg/mL (≈ 0.91 µM)
- solubility at 8 days ([1]; aqueous with cosolvent or surfactant or cyclodextrin, thermodynamic from solid, Acetonitrile/water (1:1 v/v)): > 40000 µg/mL
- solubility at 8 days ([1]; aqueous with cosolvent or surfactant or cyclodextrin, thermodynamic from solid, Ethanol/water (1:1 v/v)): 13900 µg/mL (≈ 26900 µM)
- solubility at 8 days ([1]; organic solvent or mixture, thermodynamic from solid, Ethanol): 47600 µg/mL (≈ 92100 µM)
- solubility at 8 days ([1]; organic solvent or mixture, thermodynamic from solid, acetonitrile): 610 µg/mL (≈ 1180 µM)
- solubility at 8 days ([1]; pH 1.48, aqueous with cosolvent or surfactant or cyclodextrin, thermodynamic from solid, 0.1N HCl + SDS (0.1%)): 22 µg/mL
- solubility at 8 days ([1]; pH 1.49, simulated gastric fluid, thermodynamic from solid, 0.1N HCl): 1.5 µg/mL (≈ 2.9 µM)
- solubility at 8 days ([1]; pH 2.24, simulated gastric fluid, thermodynamic from solid, 0.01N HCL): 0.6 µg/mL (≈ 1.16 µM)
- solubility at 8 days ([1]; pH 2.33, aqueous with cosolvent or surfactant or cyclodextrin, thermodynamic from solid, 0.01N HCl + SDS (0.1%)): 994 µg/mL
- solubility at 8 days ([1]; pH 6.28, thermodynamic from solid, Water): 33 µg/mL (≈ 63.9 µM)
- solubility at 8 days ([1]; pH 7.02, aqueous with cosolvent or surfactant or cyclodextrin, thermodynamic from solid, Water + SDS (0.1%)): 1190 µg/mL
- solubility at 4 days ([1]; simulated gastric fluid, thermodynamic from solid, 0.01N HCl): < 0.5 µg/mL
- solubility at 4 days ([1]; simulated gastric fluid, thermodynamic from solid, 0.1N HCl): 1.9 µg/mL (≈ 3.68 µM)
- Solubility (overall assessment) ([1]; summary of Tables 2-3): good solubility
- solubility at 4 days ([1]; thermodynamic from solid, water): 106 µg/mL (≈ 205 µM)
- Intrinsic dissolution rate ([2]; 0.01N HCl + SDS (0.1%)): 0.0245 mg min^−1 cm^−2
- Intrinsic dissolution rate ([2]; 0.1N HCl + SDS (0.1%)): 0.0368 mg min^−1 cm^−2
- Intrinsic dissolution rate ([2]; Water + SDS (0.1%)): 0.0098 mg min^−1 cm^−2
- Dissolution (overall assessment) ([2]; summary of Table 4): relatively quick dissolution
Structure (SMILES): CCc1cc(/C(C)=N/OCc2ccc(C3CCCCC3)c(C(F)(F)F)c2)ccc1CN1CC(C(=O)O)C1 [Compound I, 1-(4-{1-[(E)-4-cyclohexyl-3-trifluoromethyl-benzyloxyimino]-ethyl}-2-ethyl-benzyl)-azetidine-3-carboxylic acid]
